These results are taken from patent publication US8222218B2, “Cyclopropanated carbohydrates” (Seton Hall University, priority 2008, dated 2012).

Read-outs that look alike come from different tables or passages of the source.

For data set [1], the system named is metrazole-induced clonic seizures. In words: Subcutaneous Metrazole Seizure Threshold Test (scMET), mice. The settings on record: mice; for responders at 30 mg/kg / responders at 100 mg/kg / responders at 300 mg/kg: Mus musculus, sc. The class given is in vivo. On the procedure: (§1) The subcutaneous injection of metrazole, which is a convulsant, produces clonic seizures in laboratory animals. The scMET test is designed to identify compounds that raise the seizure threshold of an animal. Mice are pretreated with test compound at 30, 100, and 300 mg/kg doses in a similar manner to the MES test. Rats are treated with a 50 mg/kg dose (p.o.). At the previously determined TPE of the test compound, the dose of metrazole that will induce convulsions in 97% of animals (CD97: 85 mg/kg mice) is injected into the loose fold of the skin in the midline of the neck. The animals are placed in isolation cages to minimize stress and observed for the next 30 minutes for the presence or absence of seizures. An episode of clonic spasms (approximately 3-5 seconds) of the fore and/or hindlimbs, jaws or vibrissae is taken as the endpoint.
(§2) Male and female albino CF1 mice (18-25 g, Charles River, Portage, Mich.) and male albino Sprague-Dawley rats (275-300 g, kindling test; 100-150 g all other tests; Charles River, Raleigh, N.C.) were used as experimental animals.

Data set [2] has as its system MES-induced seizures. In words: Maximal Electroshock Seizure (MES) test, mice. The class given is in vivo. The settings on record: mice, i.p.; for responders at 30 mg/kg / responders at 100 mg/kg / responders at 300 mg/kg: Mus musculus, ip.
Text: (§3) The MES test is a model for generalized tonic-clonic seizures. The seizures are highly reproducible and electrophysiologically consistent with human seizures. The test provides information about a compound's ability to prevent the spread of seizure when all neuronal circuits of the brain are maximally active. 60 Hz of alternating current (50 mA in mice, 150 mA in rats) is applied for 2 seconds via corneal electrodes that have been treated with an electrolyte solution containing an anesthetic (0.5% tetracaine HCl). Mice are tested at a variety of intervals after an i.p. injection of […] solution of the test compound (commonly in a 0.5% solution of methylcellulose) at 30, 100, and 300 mg/kg doses. Rats are examined after a 30 mg/kg (per os, p.o.) dose that is applied in a volume of 0.04 mL/g. An animal is considered “protected” from MES-induced seizures upon removal of the hind limb extensor component of the seizure.
as §2
For orientation: In the maximal electroshock model the usual endpoint is tonic extension of the hind limbs.

Data set [3] in a line: Acute toxicity, minimal motor impairment (rotorod), mice. Type of data set: in vivo. The settings on record: for TOX 30 0.5 h (animals toxic/tested) / TOX 30 4 h (animals toxic/tested) / TOX 100 0.5 h (animals toxic/tested) / TOX 100 4 h (animals toxic/tested) / TOX 300 0.5 h (animals toxic/tested) / TOX 300 4 h (animals toxic/tested): mice, rotorod; for TOX 30 0.5 h (animals toxic/tested) / TOX 30 4 h (animals toxic/tested): 30 mg/kg; for TOX 100 0.5 h (animals toxic/tested) / TOX 100 4 h (animals toxic/tested): 100 mg/kg; for TOX 300 0.5 h (animals toxic/tested) / TOX 300 4 h (animals toxic/tested): 300 mg/kg. The procedure:
(§4) Toxicity was measured using the minimal motor impairment test described below.
Animals are monitored for overt signs of impaired neurological or muscular function to assess a compound's toxicity. In mice, the rotorod procedure is used to disclose minimal muscular or neurological impairment. When a mouse is placed on a rotating rod (6 rpm), the animal can maintain its equilibrium for long periods of time. The animal is considered toxic if it falls off the rotating rod three times during a 1 minute period. In rats, minimal motor deficit is indicated by ataxia, which is manifested by an abnormal, uncoordinated gait.
For orientation: Falling from the rotarod earlier than controls is read as motor impairment.

Data set [4] has as its system seizures. As to the kind of experiment: In vivo anticonvulsant screening (MES, scMET, minimal clonic seizure), summary in words. Further details: species or system rat, mouse. The settings on record: summary of Table 2. On the procedure: as §4, §3, §1
The minimal clonic seizure (6 Hz) test, like the MES test, is used to assess a compound's ability to protect against electrically-induced seizures. The minimal clonic (6 Hz) seizure test uses a lower frequency (6 Hz) and a longer duration of stimulation (3 seconds) than the MES test. Test compounds are pre-administered to mice via i.p. injection. At varying times, individual mice (four per time point) are challenged with sufficient current via corneal electrodes to elicit a psychomotor seizure in 97% of animals (32 mA for 3 second). Untreated mice will display seizure characterized by a minimal clonic phase followed by stereotyped, automatistic behaviors described originally as being similar to the aura of human patients with partial seizures. Animals not displaying this behavior are considered to be protected.

Setting [5] is: 30 mg/kg, 0.4 h, read-out: scMET 30 0.4 h (animals protected/tested).
Setting [6] is: 30 mg/kg, 0.5 h, read-out: scMET 30 0.5 h (animals protected/tested).
[7] abbreviates: 100 mg/kg, 0.4 h, read-out: scMET 100 0.4 h (animals protected/tested).
The mark [8] stands for this setting: 100 mg/kg, 0.5 h, read-out: scMET 100 0.5 h (animals protected/tested).
The mark [9] stands for this setting: 300 mg/kg, 0.4 h, read-out: scMET 300 0.4 h (animals protected/tested).
Setting [10] is: 300 mg/kg, 0.5 h, read-out: scMET 300 0.5 h (animals protected/tested).
The mark [11] stands for this setting: 30 mg/kg, 0.5 h, read-out: MES 30 0.5 h (animals protected/tested).
The mark [12] stands for this setting: 30 mg/kg, 4 h, read-out: MES 30 4 h (animals protected/tested).
Where [13] appears, read: 100 mg/kg, 0.5 h, read-out: MES 100 0.5 h (animals protected/tested).
Where [14] appears, read: 100 mg/kg, 4 h, read-out: MES 100 4 h (animals protected/tested).
Where [15] appears, read: 300 mg/kg, 0.5 h, read-out: MES 300 0.5 h (animals protected/tested).
Setting [16] is: 300 mg/kg, 4 h, read-out: MES 300 4 h (animals protected/tested).

For the molecule `CCOC(=O)C1[C@@H]2[C@@H](O)[C@@H]3O[C@H](c4ccccc4)OC[C@H]3O[C@H]12` (stereo partly drawn) [Compound 20a, Ethyl (2R,4aR,5aS,6aR,7R,7aS)-7-hydroxy-2-phenylhexahydro-4H-cyclopropa[5,6]pyrano[3,2-d][1,3]dioxine-6-carboxylate], the responders at 30 mg/kg in data set [1] (setting [5]), in data set [1] (setting [6]), in data set [2] (setting [11]) and in data set [2] (setting [12]) was 0% each time. Besides, the responders at 100 mg/kg in data set [1] (setting [7]), in data set [1] (setting [8]), in data set [2] (setting [13]) and in data set [2] (setting [14]) was 0% throughout. The responders at 300 mg/kg in data set [1] (setting [9]), in data set [1] (setting [10]), in data set [2] (setting [15]) and in data set [2] (setting [16]) was 0% throughout. Besides, the “TOX 30 0.5 h (animals toxic/tested)” value in data set [3] is on record as 0/4. Also, the “TOX 30 4 h (animals toxic/tested)” value in data set [3] is given as 0/2. Besides, in data set [3], the “TOX 100 0.5 h (animals toxic/tested)” value is reported as 0/8. Further, the “TOX 100 4 h (animals toxic/tested)” value in data set [3] was 0/4. In addition, in data set [3], the “TOX 300 0.5 h (animals toxic/tested)” value is on record as 0/4. Also, the “TOX 300 4 h (animals toxic/tested)” value in data set [3] was 0/2.

Turning to `CCOC(=O)C1[C@@H]2[C@@H](O)[C@@H]3O[C@H](c4ccc(C(C)C)cc4)OC[C@H]3O[C@H]12` (stereo partly drawn) [Compound 20b, Ethyl (2R,4aR,5aS,6aR,7R,7aS)-7-hydroxy-2-[4-(propan-2-yl)phenyl]hexahydro-4H-cyclopropa[5.6]pyrano[3,2-d][1,3]dioxine-6-carboxylate], the “scMET 30 0.4 h (animals protected/tested)” value in data set [1] (30 mg/kg, 0.4 h) was 0/1. Also, the “scMET 30 0.5 h (animals protected/tested)” value in data set [1] (30 mg/kg, 0.5 h) is 0/1. Besides, the “scMET 100 0.4 h (animals protected/tested)” value in data set [1] (100 mg/kg, 0.4 h) was 0/1. For the same molecule, the “scMET 100 0.5 h (animals protected/tested)” value in data set [1] (100 mg/kg, 0.5 h) is recorded as 0/1. Besides, the “scMET 300 0.4 h (animals protected/tested)” value in data set [1] (300 mg/kg, 0.4 h) was 0/1. Moreover, in data set [1] (300 mg/kg, 0.5 h), the “scMET 300 0.5 h (animals protected/tested)” value is listed as 0/1. Besides, in data set [2] (30 mg/kg, 0.5 h), the “MES 30 0.5 h (animals protected/tested)” value was 1/5. Moreover, the “MES 30 4 h (animals protected/tested)” value in data set [2] (30 mg/kg, 4 h) is 0/1. The “MES 100 0.5 h (animals protected/tested)” value in data set [2] (100 mg/kg, 0.5 h) is on record as 0/7. Further, the “MES 100 4 h (animals protected/tested)” value in data set [2] (100 mg/kg, 4 h) was 0/3. For the same molecule, the “MES 300 0.5 h (animals protected/tested)” value in data set [2] (300 mg/kg, 0.5 h) is 0/1. Also, the “MES 300 4 h (animals protected/tested)” value in data set [2] (300 mg/kg, 4 h) is recorded as 0/1. For the same molecule, the “minimal motor impairment” value in data set [3] (at same time point / dose as observed activity) is listed as “minimal motor impairment at the same time point”. For the same molecule, in data set [3], the “TOX 30 0.5 h (animals toxic/tested)” value was 1/4, the “TOX 30 4 h (animals toxic/tested)” value is 0/2, the “TOX 100 0.5 h (animals toxic/tested)” value is 0/8 and the “TOX 100 4 h (animals toxic/tested)” value is 0/4. For the same molecule, in data set [3], the “TOX 300 0.5 h (animals toxic/tested)” value was 0/4 and the “TOX 300 4 h (animals toxic/tested)” value is on record as 0/2. The “anticonvulsant activity” value in data set [4] is recorded as “showed activity”.

As for `CCOC(=O)C1[C@@H]2[C@@H](O)[C@@H]3O[C@H](c4ccc(C(C)(C)C)cc4)OC[C@H]3O[C@H]12` (stereo partly drawn) [Compound 20c, Ethyl (2R,4aR,5aS,6aR,7R,7aS)-2-(4-tert-butylphenyl)-7-hydroxyhexahydro-4H-cyclopropa[5,6]pyrano[3,2-d][1,3]dioxine-6-carboxylate], the responders at 30 mg/kg in data set [1] (setting [5]), in data set [1] (setting [6]), in data set [2] (setting [11]) and in data set [2] (setting [12]) was 0% throughout. The responders at 100 mg/kg in data set [1] (setting [7]), in data set [1] (setting [8]), in data set [2] (setting [13]) and in data set [2] (setting [14]) was 0% each time. The responders at 300 mg/kg in data set [1] (setting [9]), in data set [1] (setting [10]), in data set [2] (setting [15]) and in data set [2] (setting [16]) was 0% throughout. Besides, in data set [3], the “TOX 30 0.5 h (animals toxic/tested)” value is 0/4. For the same molecule, the “TOX 30 4 h (animals toxic/tested)” value in data set [3] is reported as 0/2. For the same molecule, in data set [3], the “TOX 100 0.5 h (animals toxic/tested)” value is reported as 0/8. Also, the “TOX 100 4 h (animals toxic/tested)” value in data set [3] is given as 0/4. Moreover, the “TOX 300 0.5 h (animals toxic/tested)” value in data set [3] is 0/4. Further, the “TOX 300 4 h (animals toxic/tested)” value in data set [3] is reported as 0/2.

As to `CCOC(=O)C1[C@@H]2[C@@H](O)[C@@H]3O[C@H](c4cccc(OC)c4)OC[C@H]3O[C@H]12` (stereo partly drawn) [Compound 20e, Ethyl (2R,4aR,5aS,6aR,7R,7aS)-7-hydroxy-2-(3-methoxyphenyl)hexahydro-4H-cyclopropa[5,6]pyrano[3,2-d][1,3]dioxine-6-carboxylate], the responders at 30 mg/kg in data set [1] (setting [5]), in data set [1] (setting [6]), in data set [2] (setting [11]) and in data set [2] (setting [12]) was 0% each time. In addition, the responders at 100 mg/kg in data set [1] (setting [7]), in data set [1] (setting [8]), in data set [2] (setting [13]) and in data set [2] (setting [14]) was 0% each time. Also, the responders at 300 mg/kg in data set [1] (setting [9]), in data set [1] (setting [10]), in data set [2] (setting [15]) and in data set [2] (setting [16]) was 0% in each case. Further, in data set [3], the “TOX 30 0.5 h (animals toxic/tested)” value was 0/4. Besides, the “TOX 30 4 h (animals toxic/tested)” value in data set [3] is listed as 0/2. Besides, the “TOX 100 0.5 h (animals toxic/tested)” value in data set [3] is 0/8. Moreover, the “TOX 100 4 h (animals toxic/tested)” value in data set [3] is given as 0/4. The “TOX 300 0.5 h (animals toxic/tested)” value in data set [3] is on record as 0/4. Also, the “TOX 300 4 h (animals toxic/tested)” value in data set [3] was 0/2.
